According to patent US6559101B2, “N- (5, 7-dimethoxy [1, 2, 4] triazolo [1, 5-a] pyrimidin-2-yl) arylsulfonamide compounds and their use as herbicides” (Dow AgroSciences LLC, priority 2000, dated 2003):

Columns and labels:
Type in all cases: in vivo
[1] = test system: wild buckwheat (Polygonum convolvulus); assay: Postemergence herbicidal activity; settings: scored after 2 weeks, 0 no injury, 100 complete kill
Procedure: (§1) Seeds of the desired test plant species were planted in Grace-Sierra MetroMix® 306 planting mixture, which typically has a pH of 6.0 to 6.8 and an organic matter content of about 30 percent, in plastic pots with a surface area of 64 square centimeters. When required to ensure good germination and healthy plants, a fungicide treatment and/or other chemical or physical treatment was applied. The plants were grown for 7-21 days in a greenhouse with an approximately 15 hr photoperiod which was maintained at about 23-29° C. during the day and 22-28° C. during the night. Nutrients and water were added on a regular basis and supplemental lighting was provided with overhead metal halide 1000 Watt lamps as necessary. The plants were employed for testing when they reached the first or second true leaf stage. A weighed amount of each test compound, determined by the highest rate to be tested, was placed in a 20 mL glass vial and was dissolved in 4 mL of a 97:3 v/v (volume/volume) mixture of acetone and dimethyl sulfoxide to obtain concentrated stock solutions. […] The concentrated stock solutions obtained were diluted with an aqueous mixture containing acetone, water, iso-propyl alcohol, dimethyl sulfoxide, Atplus 411F crop oil concentrate, and Triton X-155 surfactant (methylenebisdiamyl phenoxy polyethoxy ethanol) in a 48.5:39:10:1.5:1.0:0.02 v/v ratio to obtain spray solutions of known concentration. The solutions containing the highest concentration to be tested were prepared by diluting 2 mL aliquots of the stock solution with 13 mL of the mixture and lower concentrations were prepared by dilution of appropriate smaller portions of the stock solution. Approximately 1.5 mL aliquots of each solution of known concentration were sprayed evenly onto each of the test plant pots using a Devilbiss atomizer driven by compressed air pressure of 2 to 4 psi (140 to 280 kiloPascals) to obtain thorough coverage of each plant. Control plants were sprayed in the same manner with the aqueous mixture. In this test an application rate of 1 ppm results in the application of approximately 1 g/ha. The treated plants and control plants were placed in a greenhouse as described above and watered by sub-irrigation to prevent wash-off of the test compounds. After 2 weeks the condition of the test plants as compared with that of the untreated plants was determined visually and scored on a scale of 0 to 100 percent where 0 corresponds to no injury and 100 corresponds to complete kill.

[2] = test system: Rox orange sorghum (Sorghum bicolor); assay: Postemergence herbicidal activity; settings: scored after 2 weeks, 0 no injury, 100 complete kill
Procedure: as §1

[3] = test system: giant foxtail (Setaria faberi); assay: Postemergence herbicidal activity; settings: scored after 2 weeks, 0 no injury, 100 complete kill
Procedure: as §1

[4] = test system: lambsquarters (Chenopodium album); assay: Postemergence herbicidal activity; settings: scored after 2 weeks, 0 no injury, 100 complete kill
Procedure: as §1

[5] = test system: pigweed (Amaranthus retroflexus); assay: Postemergence herbicidal activity; settings: scored after 2 weeks, 0 no injury, 100 complete kill
Procedure: as §1

[6] = test system: morningglory (Ipomoea hederacea); assay: Postemergence herbicidal activity; settings: scored after 2 weeks, 0 no injury, 100 complete kill
Procedure: as §1

[7] = test system: blackgrass (Alopecurus myosuroides); assay: Postemergence herbicidal activity; settings: scored after 2 weeks, 0 no injury, 100 complete kill
Procedure: as §1

[8] = test system: cocklebur (Xanthium strumarium); assay: Postemergence herbicidal activity; settings: scored after 2 weeks, 0 no injury, 100 complete kill
Procedure: as §1

[9] = test system: viola (Viola tricolor); assay: Postemergence herbicidal activity; settings: scored after 2 weeks, 0 no injury, 100 complete kill
Procedure: as §1

[10] = test system: wild oats (Avena fatua); assay: Postemergence herbicidal activity; settings: scored after 2 weeks, 0 no injury, 100 complete kill
Procedure: as §1

[11] = test system: chickweed (Stellaria media); assay: Postemergence herbicidal activity; settings: scored after 2 weeks, 0 no injury, 100 complete kill
Procedure: as §1

[12] = test system: velvetleaf (Abutilion theophrasti); assay: Postemergence herbicidal activity; settings: scored after 2 weeks, 0 no injury, 100 complete kill
Procedure: as §1

[13] = test system: Rox orange sorghum (Sorghum bicolor); assay: Preemergence herbicidal activity; settings: scored after 3 weeks, 0 no injury, 100 complete kill or no germination
Procedure: (§2) The soil matrix was contained in plastic pots with a surface area of 161 square centimeters. When required to ensure good germination and healthy plants, a fungicide treatment and/or other chemical or physical treatment was applied. A weighed amount, determined by the highest rate to be tested, of each test compound was placed in a 20 mL glass vial and was dissolved in 8 mL of a 97:3 v/v (volume/volume) mixture of acetone and dimethyl sulfoxide to obtain concentrated stock solutions. […] The stock solutions obtained were diluted with a 99.9:0.1 mixture of water and Tween® 155 surfactant (ethoxylated sorbitan fatty acid ester) to obtain application solutions of known concentration. The solutions containing the highest concentration to be tested were prepared by diluting 4 mL aliquots of the stock solution with 8.5 mL of the mixture and lower concentrations were prepared by dilution of appropriate smaller portions of the stock solution. A 2.5 mL aliquot of each solution of known concentration was sprayed evenly onto the soil of each seeded pot using a Cornwall 5.0 mL glass syringe fitted with a TeeJet TN-3 hollow cone nozzle to obtain thorough coverage of the soil in each pot. Control pots were sprayed in the same manner with the aqueous mixture. A highest application rate of 4.48 kg/ha is achieved when 50 mg of test compound is employed. The treated pots and control pots were placed in a greenhouse with an approximately 15 hr photoperiod which was maintained at about 23-29° C. during the day and 22-28° C. during the night. Nutrients and water were added on a regular basis and supplemental lighting was provided with overhead metal halide 1000 Watt lamps as necessary. The water was added by top-irrigation. After 3 weeks the condition of the test plants that germinated and grew as compared with that of the untreated plants that germinated and grew was determined visually and scored on a scale of 0 to 100 percent where 0 corresponds to no injury and 100 corresponds to complete kill or no germination.

[14] = test system: giant foxtail (Setaria faberi); assay: Preemergence herbicidal activity; settings: scored after 3 weeks, 0 no injury, 100 complete kill or no germination
Procedure: as §2

[15] = test system: barnyardgrass (Echinochloa crus-galli); assay: Preemergence herbicidal activity; settings: scored after 3 weeks, 0 no injury, 100 complete kill or no germination
Procedure: as §2

[16] = test system: lambsquarters (Chenopodium album); assay: Preemergence herbicidal activity; settings: scored after 3 weeks, 0 no injury, 100 complete kill or no germination
Procedure: as §2

[17] = test system: pigweed (Amaranthus retroflexus); assay: Preemergence herbicidal activity; settings: scored after 3 weeks, 0 no injury, 100 complete kill or no germination
Procedure: as §2

[18] = test system: morningglory (Ipomoea hederacea); assay: Preemergence herbicidal activity; settings: scored after 3 weeks, 0 no injury, 100 complete kill or no germination
Procedure: as §2

[19] = test system: blackgrass (Alopecurus myosuroides); assay: Preemergence herbicidal activity; settings: scored after 3 weeks, 0 no injury, 100 complete kill or no germination
Procedure: as §2

[20] = test system: cocklebur (Xanthium strumarium); assay: Preemergence herbicidal activity; settings: scored after 3 weeks, 0 no injury, 100 complete kill or no germination
Procedure: as §2

[21] = test system: wild oats (Avena fatua); assay: Preemergence herbicidal activity; settings: scored after 3 weeks, 0 no injury, 100 complete kill or no germination
Procedure: as §2

[22] = test system: wild poinsettia (Euphorbia heterophylla); assay: Preemergence herbicidal activity; settings: scored after 3 weeks, 0 no injury, 100 complete kill or no germination
Procedure: as §2

[23] = test system: crabgrass (Digitaria sanguinalis); assay: Preemergence herbicidal activity; settings: scored after 3 weeks, 0 no injury, 100 complete kill or no germination
Procedure: as §2

[24] = test system: velvetleaf (Abutilion theophrasti); assay: Preemergence herbicidal activity; settings: scored after 3 weeks, 0 no injury, 100 complete kill or no germination
Procedure: as §2

## CCOc1cccc(C(F)(F)F)c1S(=O)(=O)Nc1nc2nc(OC)cc(OC)n2n1 [Compound 14, N-(5,7-dimethoxy[1,2,4]triazolo[1,5-a]-pyrimidin-2-yl)-2-ethoxy-6-(trifluoromethyl)benzenesulfonamide]
[1]; 7.8 ppm
  Postemergence herbicidal activity POLCO: 90%
[2]; 7.8 ppm
  Postemergence herbicidal activity SORBI: 70%
[3]; 7.8 ppm
  Postemergence herbicidal activity SETFA: 90%
[4]; 7.8 ppm
  Postemergence herbicidal activity CHEAL: 100%
[5]; 7.8 ppm
  Postemergence herbicidal activity AMARE: 100%
[6]; 7.8 ppm
  Postemergence herbicidal activity IPOHE: 80%
[7]; 7.8 ppm
  Postemergence herbicidal activity ALOMY: 70%
[8]; 7.8 ppm
  Postemergence herbicidal activity XANST: 100%
[9]; 7.8 ppm
  Postemergence herbicidal activity VIOTR: 90%
[10]; 7.8 ppm
  Postemergence herbicidal activity AVEFA: 50%
[11]; 7.8 ppm
  Postemergence herbicidal activity STEME: 98%
[12]; 7.8 ppm
  Postemergence herbicidal activity ABUTH: 90%
[13]; 17.5 g/Ha
  Preemergence herbicidal activity SORBI: 85%
[14]; 17.5 g/Ha
  Preemergence herbicidal activity SETFA: 85%
[15]; 17.5 g/Ha
  Preemergence herbicidal activity ECHCG: 80%
[16]; 17.5 g/Ha
  Preemergence herbicidal activity CHEAL: 95%
[17]; 17.5 g/Ha
  Preemergence herbicidal activity AMARE: 95%
[18]; 17.5 g/Ha
  Preemergence herbicidal activity IPOHE: 75%
[19]; 17.5 g/Ha
  Preemergence herbicidal activity ALOMY: 80%
[20]; 17.5 g/Ha
  Preemergence herbicidal activity XANST: 70%
[21]; 17.5 g/Ha
  Preemergence herbicidal activity AVEFA: 60%
[22]; 17.5 g/Ha
  Preemergence herbicidal activity EPHHL: 85%
[23]; 17.5 g/Ha
  Preemergence herbicidal activity DIGSA: 80%
[24]; 17.5 g/Ha
  Preemergence herbicidal activity ABUTH: 85%

## COc1cc(OC)n2nc(NS(=O)(=O)c3cc(Cl)ccc3OCCF)nc2n1 [Compound 13]
[1]; 31.3 ppm
  Postemergence herbicidal activity POLCO: 80%
[2]; 31.3 ppm
  Postemergence herbicidal activity SORBI: 90%
[3]; 31.3 ppm
  Postemergence herbicidal activity SETFA: 90%
[4]; 31.3 ppm
  Postemergence herbicidal activity CHEAL: 70%
[5]; 31.3 ppm
  Postemergence herbicidal activity AMARE: 95%
[6]; 31.3 ppm
  Postemergence herbicidal activity IPOHE: 70%
[7]; 31.3 ppm
  Postemergence herbicidal activity ALOMY: 85%
[8]; 31.3 ppm
  Postemergence herbicidal activity XANST: 90%
[9]; 31.3 ppm
  Postemergence herbicidal activity VIOTR: 80%
[10]; 31.3 ppm
  Postemergence herbicidal activity AVEFA: 75%
[11]; 31.3 ppm
  Postemergence herbicidal activity STEME: 85%
[12]; 31.3 ppm
  Postemergence herbicidal activity ABUTH: 70%
[13]; 35 g/Ha
  Preemergence herbicidal activity SORBI: 95%
[14]; 35 g/Ha
  Preemergence herbicidal activity SETFA: 95%
[15]; 35 g/Ha
  Preemergence herbicidal activity ECHCG: 80%
[16]; 35 g/Ha
  Preemergence herbicidal activity CHEAL: 95%
[17]; 35 g/Ha
  Preemergence herbicidal activity AMARE: 95%
[18]; 35 g/Ha
  Preemergence herbicidal activity IPOHE: 50%
[19]; 35 g/Ha
  Preemergence herbicidal activity ALOMY: 95%
[20]; 35 g/Ha
  Preemergence herbicidal activity XANST: 50%
[21]; 35 g/Ha
  Preemergence herbicidal activity AVEFA: 85%
[22]; 35 g/Ha
  Preemergence herbicidal activity EPHHL: 50%
[23]; 35 g/Ha
  Preemergence herbicidal activity DIGSA: 100%
[24]; 35 g/Ha
  Preemergence herbicidal activity ABUTH: 60%
